Assay [1] addresses T1, Tyrosine-protein kinase receptor TYRO3 (Homo sapiens) (UniProt Q06418).
T1 sequence (whole entry): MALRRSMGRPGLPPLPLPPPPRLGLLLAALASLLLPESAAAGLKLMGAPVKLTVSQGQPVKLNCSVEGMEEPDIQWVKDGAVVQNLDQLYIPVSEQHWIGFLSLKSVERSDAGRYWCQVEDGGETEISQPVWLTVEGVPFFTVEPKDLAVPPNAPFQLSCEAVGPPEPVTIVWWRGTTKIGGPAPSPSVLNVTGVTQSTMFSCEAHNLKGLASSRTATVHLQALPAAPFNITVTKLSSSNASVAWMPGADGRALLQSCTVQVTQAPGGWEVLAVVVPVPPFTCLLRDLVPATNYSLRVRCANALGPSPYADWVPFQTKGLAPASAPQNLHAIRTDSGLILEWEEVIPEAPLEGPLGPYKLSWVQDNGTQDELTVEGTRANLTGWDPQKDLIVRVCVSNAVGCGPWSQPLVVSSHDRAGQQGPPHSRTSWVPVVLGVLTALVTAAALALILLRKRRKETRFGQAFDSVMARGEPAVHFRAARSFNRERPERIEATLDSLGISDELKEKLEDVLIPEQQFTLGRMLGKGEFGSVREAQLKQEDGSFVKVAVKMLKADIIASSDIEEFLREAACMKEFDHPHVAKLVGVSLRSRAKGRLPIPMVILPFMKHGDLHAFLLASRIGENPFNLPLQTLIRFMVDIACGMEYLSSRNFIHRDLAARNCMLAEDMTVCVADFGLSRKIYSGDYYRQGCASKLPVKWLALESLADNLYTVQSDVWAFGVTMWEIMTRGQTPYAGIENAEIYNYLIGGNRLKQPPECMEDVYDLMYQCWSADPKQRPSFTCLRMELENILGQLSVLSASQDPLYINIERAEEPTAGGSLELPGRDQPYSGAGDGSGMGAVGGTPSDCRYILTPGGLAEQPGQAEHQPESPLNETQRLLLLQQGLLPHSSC
The assay can be described thus: Inhibition of human recombinant TYRO3 at 40 nM in presence of ATP by radiometric assay relative to control.

In assay [2] the target is Wee1-like protein kinase 2 (Homo sapiens) (UniProt P0C1S8). Kind of assay: Inhibition of human recombinant Wee1B at 500 nM in presence of ATP by radiometric assay relative to control.
The target of assay [3] is T2, Eukaryotic translation initiation factor 2-alpha kinase 3 (Homo sapiens) (UniProt Q9NZJ5).
T2 sequence (whole entry): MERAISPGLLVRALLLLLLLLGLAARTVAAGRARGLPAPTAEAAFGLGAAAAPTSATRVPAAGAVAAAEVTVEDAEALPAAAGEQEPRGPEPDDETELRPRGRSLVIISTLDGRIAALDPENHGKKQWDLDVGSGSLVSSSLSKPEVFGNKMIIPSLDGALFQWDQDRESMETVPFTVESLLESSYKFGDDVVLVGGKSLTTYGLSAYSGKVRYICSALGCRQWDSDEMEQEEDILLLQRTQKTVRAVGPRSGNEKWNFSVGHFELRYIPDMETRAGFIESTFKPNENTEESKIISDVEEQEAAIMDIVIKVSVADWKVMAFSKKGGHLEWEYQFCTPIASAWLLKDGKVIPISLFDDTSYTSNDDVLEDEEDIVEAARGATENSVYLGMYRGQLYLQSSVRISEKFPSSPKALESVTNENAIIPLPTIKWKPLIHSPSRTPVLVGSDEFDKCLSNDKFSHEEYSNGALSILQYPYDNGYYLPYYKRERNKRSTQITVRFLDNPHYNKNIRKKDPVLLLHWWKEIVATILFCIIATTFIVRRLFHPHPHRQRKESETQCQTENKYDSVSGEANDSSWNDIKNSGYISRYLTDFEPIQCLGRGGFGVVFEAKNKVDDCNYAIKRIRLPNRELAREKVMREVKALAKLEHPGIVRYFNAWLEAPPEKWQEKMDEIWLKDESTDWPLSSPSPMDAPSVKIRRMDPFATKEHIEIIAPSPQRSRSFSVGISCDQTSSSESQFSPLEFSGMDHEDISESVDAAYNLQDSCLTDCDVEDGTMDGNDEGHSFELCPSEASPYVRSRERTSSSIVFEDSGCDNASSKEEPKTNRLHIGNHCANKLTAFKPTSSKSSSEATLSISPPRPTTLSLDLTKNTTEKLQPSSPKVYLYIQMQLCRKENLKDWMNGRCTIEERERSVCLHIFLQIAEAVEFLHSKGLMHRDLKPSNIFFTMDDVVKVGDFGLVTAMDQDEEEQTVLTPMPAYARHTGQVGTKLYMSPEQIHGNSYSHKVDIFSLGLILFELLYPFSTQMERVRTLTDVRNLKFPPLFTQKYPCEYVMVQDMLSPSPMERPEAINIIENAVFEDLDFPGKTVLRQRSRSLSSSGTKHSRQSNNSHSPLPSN
Kind of assay: Inhibition of human recombinant PEK at 500 nM in presence of ATP by radiometric assay relative to control.

Assay [4] deals with Glycogen synthase kinase-3 alpha (Homo sapiens) (UniProt P49840). The assay can be described thus: Inhibition of human recombinant GSK3A at 15 nM related to control ULK1.
For assay [5], the target named is Serine/threonine-protein kinase pim-3 (Homo sapiens) (UniProt Q86V86). The assay can be described thus: Inhibition of human recombinant PIM3 at 15 nM in presence of ATP by radiometric assay relative to control.
Assay [6] has as its target Calcium/calmodulin-dependent protein kinase type II subunit beta (Homo sapiens) (UniProt Q13554). The assay can be described thus: Inhibition of human recombinant CaMK2b at 15 nM related to control ULK1.

The results in this text go back to ChEMBL document CHEMBL5653631, “A Potent and Selective ULK1 Inhibitor Suppresses Autophagy and Sensitizes Cancer Cells to Nutrient Stress” (iScience, 2018).

As a reminder, the inhibition is the percentage by which the read-out fell short of the control.

Wee1-like protein kinase 2 (Homo sapiens), sequence (P0C1S8 whole entry, looked up): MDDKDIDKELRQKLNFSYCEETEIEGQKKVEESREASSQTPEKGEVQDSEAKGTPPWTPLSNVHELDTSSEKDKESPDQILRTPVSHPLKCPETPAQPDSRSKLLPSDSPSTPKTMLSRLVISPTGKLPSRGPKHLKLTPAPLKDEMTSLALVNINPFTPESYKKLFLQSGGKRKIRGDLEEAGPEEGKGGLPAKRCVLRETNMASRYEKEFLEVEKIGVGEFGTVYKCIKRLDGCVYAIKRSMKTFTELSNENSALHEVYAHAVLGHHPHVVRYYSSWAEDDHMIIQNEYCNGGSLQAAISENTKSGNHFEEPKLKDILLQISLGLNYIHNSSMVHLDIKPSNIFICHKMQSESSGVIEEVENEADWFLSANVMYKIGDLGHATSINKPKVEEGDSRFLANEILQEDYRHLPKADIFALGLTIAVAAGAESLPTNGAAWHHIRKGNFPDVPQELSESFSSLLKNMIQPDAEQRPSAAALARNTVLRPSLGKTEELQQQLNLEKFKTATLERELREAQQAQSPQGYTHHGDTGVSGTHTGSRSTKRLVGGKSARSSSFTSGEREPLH
Glycogen synthase kinase-3 alpha (Homo sapiens), sequence (P49840 2-483 limits assumed): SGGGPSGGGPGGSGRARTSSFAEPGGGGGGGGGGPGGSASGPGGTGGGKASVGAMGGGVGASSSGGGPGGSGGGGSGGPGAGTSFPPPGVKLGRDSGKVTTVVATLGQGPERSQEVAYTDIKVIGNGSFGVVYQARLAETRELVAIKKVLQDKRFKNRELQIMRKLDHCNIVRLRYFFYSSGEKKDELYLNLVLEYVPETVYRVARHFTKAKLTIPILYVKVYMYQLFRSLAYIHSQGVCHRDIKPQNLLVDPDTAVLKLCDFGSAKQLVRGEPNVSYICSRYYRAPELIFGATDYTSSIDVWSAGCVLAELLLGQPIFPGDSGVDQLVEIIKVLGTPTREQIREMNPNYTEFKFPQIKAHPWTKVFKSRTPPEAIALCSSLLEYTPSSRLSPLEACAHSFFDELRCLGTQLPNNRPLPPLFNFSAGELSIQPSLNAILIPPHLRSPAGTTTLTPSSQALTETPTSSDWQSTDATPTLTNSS
Calcium/calmodulin-dependent protein kinase type II subunit beta (Homo sapiens), sequence (Q13554 whole entry): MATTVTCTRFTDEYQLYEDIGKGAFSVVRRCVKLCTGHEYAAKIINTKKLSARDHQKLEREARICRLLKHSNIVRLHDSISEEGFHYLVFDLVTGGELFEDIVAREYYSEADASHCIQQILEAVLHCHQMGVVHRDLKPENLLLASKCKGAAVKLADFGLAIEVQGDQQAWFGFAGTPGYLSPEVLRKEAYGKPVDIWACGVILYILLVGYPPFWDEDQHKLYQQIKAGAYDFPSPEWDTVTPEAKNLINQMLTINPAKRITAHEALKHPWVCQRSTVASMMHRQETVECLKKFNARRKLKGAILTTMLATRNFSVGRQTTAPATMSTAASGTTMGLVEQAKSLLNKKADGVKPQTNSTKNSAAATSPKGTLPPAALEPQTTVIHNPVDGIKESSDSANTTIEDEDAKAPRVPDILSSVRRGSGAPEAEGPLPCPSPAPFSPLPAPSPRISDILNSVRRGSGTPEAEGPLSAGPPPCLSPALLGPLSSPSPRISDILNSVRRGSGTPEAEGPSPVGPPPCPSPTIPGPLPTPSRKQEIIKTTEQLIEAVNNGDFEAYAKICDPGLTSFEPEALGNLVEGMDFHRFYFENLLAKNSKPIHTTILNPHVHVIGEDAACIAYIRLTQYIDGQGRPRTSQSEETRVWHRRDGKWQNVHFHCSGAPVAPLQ

Turning to `O=C(N[C@@H](C1CC1)C(F)(F)F)c1cc(-c2cnn3cc(-c4ccc(F)cc4)cnc23)cs1`, the inhibition in assay [1] stood at 0%.
For `CNC(=O)c1ccccc1Oc1nc(Nc2cc(OC)c(OC)c(OC)c2)ncc1Br`, the inhibition in assay [2] was found to be 2%; in assay [3], 0%.
Consider `CC(C)[C@H](NC(=O)c1cc(-c2cnn3cc(-c4ccc(OCCN5CCCCC5)cc4)cnc23)cs1)C(F)(F)F`, for which the fold change (FC) turned out to be 0 in assay [4] and 0.11 in assay [6]. The inhibition in assay [5] worked out at 2%.
